# Source: patent US10730863B2, “Bridged bicyclic compounds as farnesoid X receptor modulators” (BRISTOL-MYERS SQUIBB COMPANY, priority 2017, dated 2020)
# Assays:
# Cyp7a1 = test: Acute mouse PK/PD: Cyp7a1 gene expression in liver; type: in vivo; conditions: for Cyp7a1 (fold change@ 6 h relative to Vehicle): mouse PD
# Description: (§1) In Vivo Testing Example: Acute Mouse PK/PD
# (§2) Male, C57BL6/NTac mice, weighing 25-28 g, are purchased from Taconic Labs (Hudson, N.Y.) and maintained on Teklad Global 18% Protein Rodent Diet (Harlan Laboratories). After 1 week acclimation, mice are sorted into groups based upon body weight. Mice are administered a single oral dose of vehicle or experimental compound. Systemic compound exposure is evaluated in plasma derived from blood collected via the submandibular vein at 1 hour post-dose, and at study termination (6 h). At study termination, the animals are euthanized and rapidly dissected. The medial lobe of the liver is divided, with one half being homogenized and analyzed for compound exposure, and the other half saved in RNAlater (Thermo-Fisher Scientific). The ileum is also dissected and preserved in RNAlater. Tissue samples in RNAlater are homogenized with MP Biomedicals' beads. RNA is extracted using the MagMax-96 Total RNA Isolation kit (Thermo-Fisher Scientific) according to the manufacturer's protocol. RNA Concentration is determined with the Nano-Drop 8000 Spectrophotometer (Thermo Fisher). Reverse transcription is done with Invitrogen's SuperScript® VILO cDNA Synthesis Kit according to the manufacturer's protocol. Real time PCR is done with Applied Biosystems' Taqman PCR master mixture according to the manufacturer's protocol. All primers are purchased from Thermo-Fisher Scientific. Mouse genes analyzed include Nr0b2 (which encodes the small heterodimer partner, SHP), Abcb11 (which encodes the bile salt excretion pump, BSEP), Cyp7a1, & Cyp8b1 in liver, and Fgf15, Fabp6 (which encodes ileal bile acid binding protein, I-BABP), Slc51a (which encodes organic solute transporter alpha subunit, OSTA), and Slc51b (which encodes organic solute transporter beta subunit, OSTB) in the ileum. The statistical significant changes in FGF15 gene expression are expressed as fold increase and CYP7A1 expression as a percent reduction relative to vehicle control.
# Fgf15 = test: Acute mouse PK/PD: Fgf15 gene expression in ileum; type: in vivo; conditions: for Fgf15 (fold change@ 6 h relative to Vehicle): mouse PD
# Description: as §1, §2
# [1] = 72-week trial, patients with NASH, liver biopsies; cited from earlier work
# [2] = 6-week trial, T2DM patients with NAFLD; cited from earlier work
# FXR [3] = molecular target: T1, FXR (Homo sapiens (Human), UniProt Q96RI1); test: transient human FXR/Gal4-luciferase reporter assay; type: cell-based; conditions: Gal4-hFXR LBD fusion in HEK293 reporter cells; relative to 8 μM GW-4064
# In short: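 HEK293 cells stably carrying a 5×Gal4-response-element firefly luciferase reporter, transiently transfected with a Gal4 DNA-binding domain/human FXR ligand-binding domain fusion. Compounds incubated overnight at 37° C, with luminescence read after Steady-Glo. DMSO background subtracted; response expressed as % of the 8 μM GW-4064 control.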
# Cypa7a1, Ffg15 = test: Mouse in vivo (Cyp7a1 / Fgf15 response); conditions: 3 mg/kg, @ 6 h
# FXR [4] = molecular target: T1, FXR; test: FXR EC50 (FXR agonist activity reported with each example); type: cell-based
# T1 sequence (Q96RI1 262-486): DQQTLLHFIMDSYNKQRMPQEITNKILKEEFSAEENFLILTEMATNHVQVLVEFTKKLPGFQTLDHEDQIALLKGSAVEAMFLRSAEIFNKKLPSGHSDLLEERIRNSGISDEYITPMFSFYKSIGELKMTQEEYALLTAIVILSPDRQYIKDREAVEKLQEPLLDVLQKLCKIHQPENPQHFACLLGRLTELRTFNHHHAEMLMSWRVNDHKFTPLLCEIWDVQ
compound,measurement,setting,value
O=C(O)c1cccc(-c2noc(C34CCC(OCc5c(-c6c(Cl)cccc6Cl)noc5C5CC5)(CC3)CC4)n2)c1 [Example 27],Cyp7a1 (fold change@ 6 h relative to Vehicle),Cyp7a1; dose 30 mg/kg,0.10 fold change
same,Fgf15 (fold change@ 6 h relative to Vehicle),Fgf15; dose 30 mg/kg,2.8 fold change
"CC[C@H]1[C@@H](O)[C@@H]2[C@H](CC[C@]3(C)[C@@H]([C@H](C)CCC(=O)O)CC[C@@H]23)[C@@]2(C)CC[C@@H](O)C[C@@H]12 [OCA, obeticholic acid]","hepatic steatosis, lobular inflammation, hepatocyte ballooning, and fibrosis",[1],statistically significantly improved
same,body weight,[2],reduced
same,insulin sensitivity,[2],statistically significantly improved
CN1CCN(c2nc(C(=O)O)cc3ccc(/C=C/C45CCC(OCc6c(-c7c(Cl)cncc7Cl)noc6C6CC6)(CC4)CC5)cc23)CC1 [Example 629],"Mouse in vivo Cyp7a1 (printed Cypa7a1), change relative to vehicle","Cyp7a1; mouse, 3 mg/kg single oral dose, @ 6 h, liver",−97%
same,"Mouse in vivo Fgf15 (printed Ffg15), fold increase relative to vehicle","Fgf15; mouse, 3 mg/kg single oral dose, @ 6 h, ileum",+7.1 x
same,EC50,FXR [3],35 nM
"CN1CCN(c2nc(C(=O)O)cc3ccc(C#CC45CCC(OCc6c(-c7c(Cl)cncc7Cl)noc6C6CC6)(CC4)CC5)cc23)CC1 [Example 519, 7-((4-((5-cyclopropyl-3-(3,5-dichloropyridin-4-yl)isoxazol-4-yl)methoxy)bicyclo[2.2.2]octan-1-yl)ethynyl)-1-(4-methylpiperazin-1-yl)isoquinoline-3-carboxylic acid]",Cypa7a1,"Cypa7a1, Ffg15",−92%
same,Ffg15,"Cypa7a1, Ffg15",+1.4 ×
same,EC50,FXR [4],28 nM
"O=C(O)c1cc(C(F)(F)F)c2cc(OCC34CCC(OCc5c(-c6c(Cl)cncc6Cl)noc5C5CC5)(CC3)CC4)ccc2n1 [Example 101, 6-((4-((5-cyclopropyl-3-(3,5-dichloropyridin-4-yl)isoxazol-4-yl)methoxy)bicyclo[2.2.2]octan-1-yl)methoxy)-4-(trifluoromethyl)quinoline-2-carboxylic acid]",Cyp7a1 (fold change@ 6 h relative to Vehicle),Cyp7a1; dose 3 mg/kg,0.06 fold change
same,Fgf15 (fold change@ 6 h relative to Vehicle),Fgf15; dose 3 mg/kg,21 fold change
same,EC50,FXR [4],8 nM
